Assay [1] has as its system OPM2 cells. Put plainly: Cell proliferation assay (ViaLight, cellular ATP). The conditions noted are these: Homo sapiens, OPM-2, 120 h, 5 days, 5 μM to 1 nM. The class given is cell-based. On the procedure:
OPM2 cells (1×10^3) were plated in a 96 well plate. Test compounds were added to cells at final concentrations ranging from 5 μM to 1 nM. They were incubated for 5 days before they were analysed using ViaLight luminescence-based proliferation assays which detect cellular ATP, as per the manufacturer's instructions. All samples were prepared in technical triplicates. Data analysis was performed in GraphPad Prism version 7.00 for Mac OS X, (GraphPad Software, San Diego California USA) in order to calculate the GI50.

Assay [2] deals with T1, PI3K.
T1 construct: PI3K Enzyme Activity Assay IC50 (nM); other: 10 μM ATP, 180 μM phosphatidyl inositol, 60 min
Description: PI3K enzyme activity assay (luminescence, ATP consumption, Kinase-Glo). It counts as biochemical. As to conditions: 10 μM ATP, 180 μM phosphatidyl inositol, 60 min. On the procedure:
PI3K activity was determined using a luminescence assay measuring ATP consumption as described previously (J.-A. Pinson, Z. Zheng, M. S. Miller, D. K. Chalmers, I. G. Jennings, P. E. Thompson, L-Aminoacyl-triazine derivatives are isoform-selective PI3Kβ inhibitors that target nonconserved Asp862 of PI3Kb, ACS Med. Chem. Lett. 4 (2013) 206-210). PI3K enzyme activity was determined in 25 μl of 20 mM HEPES pH 7.5, 5 mM MgCl2 with 180 μM phosphatidyl inositol and 10 μMATP. After a 60 min incubation at room temperature the reaction was stopped by the addition of Kinase-Glo (Promega) followed by a further 15 min incubation. Luminescence was then read using a Fluostar plate reader (BMGLabtech).
Inhibitors were diluted in 20% (v/v) DMSO at the indicated concentrations in order to generate a concentration versus inhibition of enzyme activity curve which was then analysed using GraphPad Prism version 8.00 for Windows, (GraphPad Software, San Diego California USA) in order to calculate the IC50. Standard deviations for the calculated IC50's are within 25% of the mean.
For orientation: Kinase-Glo measures the ATP left after a reaction by luminescence.

Structures are written as SMILES. Bounds are passed on as bounds.

The compound `CC(=O)N1c2ccc(-c3ccc(CNC(=O)c4nc5c(N6CCOCC6)nc(-c6cnc(N)nc6)cn5c4C)cc3)cc2CC[C@@H]1C` [Cpd 020, (S)-N-(4-(1-acetyl-2-methyl-1,2,3,4-tetrahydroquinolin-6-yl)benzyl)-6-(2-aminopyrimidin-5-yl)-3-methyl-8-morpholinoimidazo[1,2-a]pyrazine-2-carboxamide] registered a GI50 in assay [1] of no more than 100 nM. Further, in assay [2], the IC50 was no more than 100 nM.

The compound `CC(=O)N1c2ccc(-c3ccc(C(=O)NCCNC(=O)c4nc5c(N6CCOCC6)nc(-c6cnc(N)nc6)cn5c4C)cc3)cc2CC[C@@H]1C` [Cpd 021, (S)-N-(2-(4-(1-Acetyl-2-methyl-1,2,3,4-tetrahydroquinolin-6-yl)benzamido)ethyl)-6-(2-aminopyrimidin-5-yl)-3-methyl-8-morpholinoimidazo[1,2-a]pyrazine-2-carboxamide] displayed a GI50 in assay [1] of no more than 100 nM. The compound further had an IC50 in assay [2] of no more than 100 nM.

For the compound `CC(=O)N1c2ccc(-c3ccc(C(=O)NCc4cc5nc(-c6cnc(N)nc6)nc(N6CCOCC6)c5s4)cc3)cc2CC[C@@H]1C` [Cpd 026, (S)-4-(1-Acetyl-2-methyl-1,2,3,4-tetrahydroquinolin-6-yl)-N-((2-(2-aminopyrimidin-5-yl)-4-morpholinothieno[3,2-d]pyrimidin-6-yl)methyl)benzamide], in assay [1], the GI50 is no more than 100 nM. In assay [2], the IC50 was in the range of 100 to 500 nM.

`CC(=O)N1c2ccc(-c3ccc(CC(=O)NCc4cc5nc(-c6cnc(N)nc6)nc(N6CCOCC6)c5s4)cc3)cc2CC[C@@H]1C` [Cpd 027, (S)-2-(4-(1-Acetyl-2-methyl-1,2,3,4-tetrahydroquinolin-6-yl)phenyl)-N-((2-(2-aminopy-rimidin-5-yl)-4-morpholinothieno[3,2-d]pyrimidin-6-yl)methyl)acetamide]: the GI50 in assay [1] lay in the range of 100 to 500 nM. The IC50 in assay [2] is no more than 100 nM.

Regarding `CC(=O)N1c2ccc(-c3ccc(C(=O)N4CCN(Cc5cc6nc(-c7cnc(N)nc7)nc(N7CCOCC7)c6s5)CC4)cc3)cc2CC[C@@H]1C` [Cpd 028, (S)-1-(6-(4-(4-((2-(2-Aminopyrimidin-5-yl)-4-morpholinothieno[3,2-d]pyrimidin-6-yl)methyl)piperazine-1-carbonyl)phenyl)-2-methyl-3,4-dihydroquinolin-1(2H)-yl)ethan-1-one], the GI50 in assay [1] was in the range of 100 to 500 nM. The same compound yielded an IC50 in assay [2] of 100 to 500 nM.

`CC(=O)N1c2ccc(-c3ccc(CN4CCN(Cc5cc6nc(-c7cnc(N)nc7)nc(N7CCOCC7)c6s5)CC4)cc3)cc2CC[C@@H]1C` [Cpd 029, (S)-1-(6-(4-((4-((2-(2-Aminopyrimidin-5-yl)-4-morpholinothieno[3,2-d]pyrimidin-6-yl)methyl)piperazin-1-yl)methyl)phenyl)-2-methyl-3,4-dihydroquinolin-1(2H)-yl)ethan-1-one] showed a GI50 in assay [1] of 100 to 500 nM. This compound had an IC50 in assay [2] of 100 to 500 nM.

In turn, `CC(=O)N1c2ccc(-c3ccc(CNC(=O)c4cn5cc(-c6cccc7[nH]ncc67)nc(N6CCOCC6)c5n4)cc3)cc2CC[C@@H]1C` [Cpd 059, (S)-N-(4-(1-Acetyl-2-methyl-1,2,3,4-tetrahydroquinolin-6-yl)benzyl)-6-(1H-indazol-4-yl)-8-morpholinoimidazo[1,2-a]pyrazine-2-carboxamide] registered a GI50 in assay [1] of no more than 100 nM.

Compound `CC(=O)N1c2ccc(-c3ccc(CNC(=O)c4cn5cc(-n6c(C(F)F)nc7ccccc76)nc(N6CCOCC6)c5n4)cc3)cc2CC[C@@H]1C` [Cpd 060, (S)-N-(4-(1-Acetyl-2-methyl-1,2,3,4-tetrahydroquinolin-6-yl)benzyl)-6-(2-(difluoromethyl)-1H-benzo[d]imidazol-1-yl)-8-morpholinoimidazo[1,2-a]pyrazine-2-carboxamide] gave a GI50 in assay [1] of no more than 100 nM.

In assay [1], `CC(=O)N1c2ccc(-c3ccc(C(C)(C)NC(=O)c4cn5cc(-c6cnc(N)nc6)nc(N6CCOCC6)c5n4)cc3)cc2CC[C@@H]1C` [Cpd 061, (S)-N-(2-(4-(1-Acetyl-2-methyl-1,2,3,4-tetrahydroquinolin-6-yl)phenyl)propan-2-yl)-6-(2-aminopyrimidin-5-yl)-8-morpholinoimidazo[1,2-a]pyrazine-2-carboxamide] came in with a concentration for 50% growth inhibition (GI50) of 100 to 500 nM.

For `CC(=O)N1c2ccc(-c3ccc([C@H](C)NC(=O)c4cn5cc(-c6cnc(N)nc6)nc(N6CCOCC6)c5n4)cc3)cc2CC[C@@H]1C` [Cpd 062, N-((S)-1-(4-((S)-1-Acetyl-2-methyl-1,2,3,4-tetrahydroquinolin-6-yl)phenyl)ethyl)-6-(2-aminopyrimidin-5-yl)-8-morpholinoimidazo[1,2-a]pyrazine-2-carboxamide], in assay [1], the concentration for 50% growth inhibition (GI50) was no more than 100 nM.

For the compound `CC(=O)N1c2ccc(-c3ccc([C@@H](C)NC(=O)c4cn5cc(-c6cnc(N)nc6)nc(N6CCOCC6)c5n4)cc3)cc2CC[C@@H]1C` [Cpd 063, N-((R)-1-(4-((S)-1-Acetyl-2-methyl-1,2,3,4-tetrahydroquinolin-6-yl)phenyl)ethyl)-6-(2-aminopyrimidin-5-yl)-8-morpholinoimidazo[1,2-a]pyrazine-2-carboxamide], the GI50 in assay [1] was no more than 100 nM.

`CC(=O)N1c2ccc(-c3ccc(CNC(=O)c4cn5cc(-c6cnc(N)nc6)nc(N6CCCCC6)c5n4)cc3)cc2CC[C@@H]1C` [Cpd 064, (S)-N-(4-(1-Acetyl-2-methyl-1,2,3,4-tetrahydroquinolin-6-yl)benzyl)-6-(2-aminopyrimidin-5-yl)-8-(piperidin-1-yl)imidazo[1,2-a]pyrazine-2-carboxamide]: in assay [1], the GI50 lay in the range of 100 to 500 nM.

In the case of `CC(=O)N1c2ccc(-c3ccc(CNC(=O)c4cc5c(N6CCOCC6)nc(-c6cnc(N)nc6)cn5n4)cc3)cc2CC[C@@H]1C` [Cpd 067, (S)-N-(4-(1-Acetyl-2-methyl-1,2,3,4-tetrahydroquinolin-6-yl)benzyl)-6-(2-aminopyrimidin-5-yl)-4-morpholinopyrazolo[1,5-a]pyrazine-2-carboxamide], in assay [1], the 50% growth inhibitory concentration (GI50) is no more than 100 nM.

Compound `CC(=O)N1c2ccc(-c3ccc(CNC(=O)c4cc5c(N6CCOCC6)nc(-c6cnc(N)nc6)c(Cl)n5n4)cc3)cc2CC[C@@H]1C` [Cpd 068, (S)-N-(4-(1-Acetyl-2-methyl-1,2,3,4-tetrahydroquinolin-6-yl)benzyl)-6-(2-aminopyrimidin-5-yl)-7-chloro-4-morpholinopyrazolo[1,5-a]pyrazine-2-carboxamide] had a 50% growth inhibitory concentration (GI50) in assay [1] of no more than 100 nM.

`CC(=O)N1c2ccc(-c3ccc(CNC(=O)c4cc5c(N6CCOCC6)nc(-c6cnc(N)nc6)cn5c4)cc3)cc2CC[C@@H]1C` [Cpd 069, (S)-N-(4-(1-Acetyl-2-methyl-1,2,3,4-tetrahydroquinolin-6-yl)benzyl)-3-(2-aminopyrimidin-5-yl)-1-morpholinopyrrolo[1,2-a]pyrazine-7-carboxamide] registered a GI50 in assay [1] of no more than 100 nM.

Consider `CC(=O)N1c2ccc(-c3ccc(CNC(=O)c4cn5c(N6CCOCC6)nc(-c6cnc(N)nc6)cc5n4)cc3)cc2CC[C@@H]1C` [Cpd 070, (S)-N-(4-(1-Acetyl-2-methyl-1,2,3,4-tetrahydroquinolin-6-yl)benzyl)-7-(2-aminopyrimidin-5-yl)-5-morpholinoimidazo[1,2-c]pyrimidine-2-carboxamide], for which, in assay [1], the GI50 was no more than 100 nM.

For the compound `CC(=O)N1c2ccc(-c3ccc(CNC(=O)c4nc5c(N6CCOCC6)nc(-c6cnc(N)nc6)nc5n4C)cc3)cc2CC[C@@H]1C` [Cpd 071, (S)-N-(4-(1-Acetyl-2-methyl-1,2,3,4-tetrahydroquinolin-6-yl)benzyl)-2-(2-aminopyrimidin-5-yl)-9-methyl-6-morpholino-9H-purine-8-carboxamide], in assay [1], the 50% growth inhibitory concentration (GI50) was no more than 100 nM.

In turn, `CC(=O)N1c2ccc(-c3ccc(CNC(=O)c4nc5c(N6CCOCC6)nc(-c6cnc(N)nc6)cn5n4)cc3)cc2CC[C@@H]1C` [Cpd 072, (S)-N-(4-(1-Acetyl-2-methyl-1,2,3,4-tetrahydroquinolin-6-yl)benzyl)-6-(2-aminopyrimidin-5-yl)-8-morpholino-[1,2,4]triazolo[1,5-a]pyrazine-2-carboxamide] gave a 50% growth inhibitory concentration (GI50) in assay [1] of no more than 100 nM.

As to `CC(=O)N1c2ccc(-c3ccc(CNC(=O)c4nc5c(N6CCOCC6)cc(-c6cnc(N)nc6)cn5n4)cc3)cc2CC[C@@H]1C` [Cpd 073, (S)-N-(4-(1-Acetyl-2-methyl-1,2,3,4-tetrahydroquinolin-6-yl)benzyl)-6-(2-aminopyrimidin-5-yl)-8-morpholino-[1,2,4]triazolo[1,5-a]pyridine-2-carboxamide], the GI50 in assay [1] is no more than 100 nM.

For the compound `CC(=O)N1c2ccc(-c3ccc(CNC(=O)c4cn5cc(-c6cnc(N)nc6)cc(N6CCOCC6)c5n4)cc3)cc2CC[C@@H]1C` [Cpd 074, (S)-N-(4-(1-Acetyl-2-methyl-1,2,3,4-tetrahydroquinolin-6-yl)benzyl)-6-(2-aminopyrimidin-5-yl)-8-morpholinoimidazo[1,2-a]pyridine-2-carboxamide], in assay [1], the GI50 was no more than 100 nM.

Regarding `CC(=O)N1c2ccc(-c3ccc(CNC(=O)c4cc5nc(-c6cnc(N)nc6)cc(N6CCOCC6)n5n4)cc3)cc2CC[C@@H]1C` [Cpd 075, (S)-N-(4-(1-Acetyl-2-methyl-1,2,3,4-tetrahydroquinolin-6-yl)benzyl)-5-(2-aminopyrimidin-5-yl)-7-morpholinopyrazolo[1,5-a]pyrimidine-2-carboxamide], the GI50 in assay [1] was no more than 100 nM.

The term GI50 denotes the concentration that inhibits growth by half. Lower therefore signals more potent growth inhibition. A word on the IC50: it is the concentration needed to halve the response being measured. The low end stands for higher potency, the high end for lower potency.

The values above are taken from patent US20230312577A1, “DUAL KINASE-BROMODOMAIN INHIBITORS” (MONASH UNIVERSITY, priority 2020, published 2023).
